# According to patent publication US8007991B2, “Three-dimensional physiological matrices for oncological testing, and methods for their production and use” (priority 2006, dated 2011):
# Test system: Patient Sample GS-640, kidney tissue (renal cell carcinoma)
# Assay: Tumor fragment growth and invasion (cell migration) in three-dimensional gel matrix, 48-well plate chemotherapy screening
# Assay type: cell-based, human
# Conditions: 5 days treatment; for distance of cell migration away from the solid tumor fragment / number of cells that have grown and invaded away from the solid tumor fragment: 37 degrees Celsius; for distance of cell migration away from the solid tumor fragment: 5% CO2, photomicrograph; for number of cells that have grown and invaded away from the solid tumor fragment: 5% CO2, photomicrograph compared with untreated control (FIG. 5); for response to the drug (overall): renal cell carcinoma patient sample
# Text: FIGS. 1-8 are photographic and photomicrographic images which show, by way of example, use of the means and methods of the present invention with respect to a tissue sample removed from a patient. With respect to FIGS. 1-8, Patient Sample GS-640, comprising kidney tissue, was removed from the patient by a surgeon during surgery.
# Tissue analysis and screening in accordance with the invention were requested by the surgeon, and proper consent was obtained from the patient prior to surgical removal of a sample quantity of tissue from the RHS Kidney. The patient was diagnosed with renal cell carcinoma. A tissue sample of approximately 1 gram in quantity was removed from the patient during surgery, and was placed into a 25 ml sample jar, and immersed in sterile saline. The tumor tissue was kept at 4 degrees centigrade until processed for the screening of therapeutic compounds in accordance with the means and methods of the invention. All procedures were performed under sterile conditions in a bio-safety laminar flow hood.
# FIG. 1 is a photographic image showing the mechanical division of the sample into portions to be tested. The sample has been prepared by dissecting away any non viable tissue and blood prior to mincing into 1-2 mm pieces using sterile disposable scalpels.
# FIG. 2 is a photographic image showing tumor sample portions which have been placed into each well of a 48 well plate, and been submersed in a gel matrix mixture according to the invention. After insertion of the portions, the mixture was allowed to form into a gel at room temperature for approximately 30 minutes. Once the gel formed around the fully immersed tumor fragments, nutrient rich media was added as a liquid overlay that permeated the entire gel and tumor fragment.
# Each different chemotherapy and or dose of chemotherapy was added to a set of 6 wells out of the 48-well plate. A total of 7 different chemotherapies were assessed in this plate. One set of six wells were not treated with drug and thus acted as ‘control conditions’ for tumor fragment growth and invasion. Each of the eight vertical lanes containing six separate wells was marked with a symbol for each chemotherapy/dose used and noted correspondingly on data collection sheets. […] The plates were then placed in a conventional 37 degree Celsius incubator at 5% CO2.
# This image is thus representative of all wells at Day 0 with or without chemotherapeutics. Images were made with a 400× magnification phase contrast micrograph using ZEISS camera specs.
# Noteworthy is the halo of cells and increased cell density as compared with the results shown at Day 3 of the test. The lines on the images have been drawn to show the distance measurements within which approximately 95% of the migrating cells have migrated away from the margins of the tissue sample.
Compound,distance of cell migration away from the solid tumor fragment,number of cells that have grown and invaded away from the solid tumor fragment,response to the drug (overall)
"CC(=O)O[C@@]12CO[C@@H]1C[C@H](O)[C@@]1(C)C(=O)[C@H](O)C3=C(C)[C@@H](OC(=O)[C@H](O)[C@@H](NC(=O)OC(C)(C)C)c4ccccc4)C[C@@](O)([C@@H](OC(=O)c4ccccc4)[C@H]21)C3(C)C [Docetaxol, Docetaxel]",longer migratory distance than treatment with Taxol,fewer number of invading cells than the control,moderate response
N.N.[Cl][Pt][Cl] [Cisplatin],,identical in appearance and cell numbers to the control sample,failed chemotherapy
"CC(=O)O[C@H]1C(=O)[C@@]2(C)[C@H]([C@H](OC(=O)c3ccccc3)[C@]3(O)C[C@H](OC(=O)[C@H](O)[C@@H](NC(=O)c4ccccc4)c4ccccc4)C(C)=C1C3(C)C)[C@]1(OC(C)=O)CO[C@@H]1C[C@@H]2O [Taxol, Paclitaxel]",a drop in both the distance and the number of cells,a drop in both the distance and the number of cells,
